Results taken from US6472424B1, “Stabilized antimicrobial compositions containing halopropynyl compounds and benzylidene camphors” (Troy Technology Corporation, Inc., priority 2000, dated 2002).

Assay: Light-induced yellowing of IPBC-containing white test paint film after UV exposure
Type: physicochemical
Settings: for effectiveness of the UV absorber in inhibiting degradation/yellowing of the IPBC: same test, assessment in words compared to the blank; for Δb value (difference in yellowing between blank paint and candidate paint sample): styrenated acrylic white house paint, IPBC 0.3%, formulation 20% IPBC / 40% UV absorber / 40% N-methyl pyrrolidone, paint film exposed to 340 nm UV radiation for four hours
Protocol: In the following examples a styrenated acrylic white house paint was used as the test medium to measure the effect of sunlight on the degradation of IPBC in various IPBC-containing compositions. The test paint composition was prepared by adding ingredients 2 through 6 slowly to a mixer containing water (ingredient 1). After mixing the composition for about 10 minutes, ingredients 7 through 11 were added, and mixing was continued until a smooth dispersion was obtained. Then the final two ingredients were added. Additional water can be added to obtain a desired viscosity.
In the following examples, a number of liquid formulations were prepared, each containing (1) 20% by weight IPBC (Troysan ® Polyphase® P-100), (2) 40% by weight of one of the UV absorbers indicated in each example which follows, and (3) 40% by weight of N-methyl pyrrolidone as a liquid vehicle. Each formulation was then incorporated into the white test paint by mixing in an amount sufficient to provide a test paint having IPBC present at a level of 0.3%. The paint formulations containing IPBC and UV absorbers were then applied on a Leneta chart with help of a 3 mil Bird type applicator. The paint film was allowed to dry for 10-15 minutes and then sprayed with a clear non-yellowing varnish (-3 mils), namely, Kamar Varnish 1312. The varnish was obtained from Krylon Products Group, The Specialty Division, Division of Sherwin-Williams Company, Ohio. The object of the varnish was to trap any of the chromophores formed during subsequent UV light exposure and to assure a short and reproducible test for accessing light-induced yellowing.
The paint film thus produced was exposed to 340 nm UV radiation for four hours and the yellowing was measured by Microflash 200D or Byk Handy Color measurement device. The difference in yellowing between a blank (the white test paint without fungicide) and the candidate paint sample, Δb, was recorded and used as the response for each test.

Δb value (difference in yellowing between blank paint and candidate paint sample)	SMILES	effectiveness of the UV absorber in inhibiting degradation/yellowing of the IPBC
1.3	COc1ccc(C=C2C(=O)C3(C)CCC2C3(C)C)cc1 (stereo not drawn) [3-(4-methoxybenzylidene)camphor]	very effective
2.8	CC12CCC(C(=Cc3ccccc3)C1=O)C2(C)C (stereo not drawn) [benzylidenecamphor]	effective in inhibiting degradation of the IPBC
2.5	Cc1ccc(C=C2C(=O)C3(C)CCC2C3(C)C)cc1 (stereo not drawn) [3-(4-methylbenzylidene)camphor]	effective in inhibiting degradation of the IPBC
3.4	Cc1ccccc1C=C1C(=O)C2(C)CCC1C2(C)C (stereo not drawn) [3-(2-methylbenzylidene)camphor]	reasonably effective
2.4	CC12CCC(C(=Cc3ccc4c(c3)OCCO4)C1=O)C2(C)C (stereo not drawn) [3-(3,4-dioxoethylenebenzylidene)camphor]	effective in inhibiting degradation of the IPBC
3.5	CC(C)c1ccc(C=C2C(=O)C3(C)CCC2C3(C)C)cc1 (stereo not drawn) [3-(4-isopropylbenzylidene)camphor]	reasonably effective
1.3	CCOc1ccc(C=C2C(=O)C3(C)CCC2C3(C)C)cc1 (stereo not drawn) [3-(4-ethoxybenzylidene)camphor]	very effective
2.7	Cc1cccc(C=C2C(=O)C3(C)CCC2C3(C)C)c1 (stereo not drawn) [3-(3-methylbenzylidene)camphor]	effective in inhibiting degradation of the IPBC
3.3	CC12CCC(C(=Cc3cccc(Cl)c3)C1=O)C2(C)C (stereo not drawn) [3-(3-chlorobenzylidene)camphor]	reasonably effective
3.6	CC12CCC(C(=Cc3ccc(Br)cc3)C1=O)C2(C)C (stereo not drawn) [3-(4-bromobenzylidene)camphor]	reasonably effective

SMILES	Δb value (difference in yellowing between blank paint and candidate paint sample)	effectiveness of the UV absorber in inhibiting degradation/yellowing of the IPBC
CCCCOc1ccc(C=C2C(=O)C3(C)CCC2C3(C)C)cc1 (stereo not drawn) [3-(4-butoxybenzylidene)camphor]	1.8	very effective
CCCCNC(=O)OCC#CI [IPBC, 3-iodo-2-propynyl butyl carbamate, reference compound]	7.1	a significant yellow color develops
